≈ marks a conversion by molar mass, not a printed value.
What was measured:
[1] = target: E. coli Topoisomerase IV ATPase (Escherichia coli, UniProt P20083); experiment: E. coli Topoisomerase IV ATPase inhibition; assay type: biochemical
Procedure: E. coli Topoisomerase IV ATPase Inhibition Activity: Compounds can be tested for inhibition of E. coli topoisomerase IV ATPase activity as described above for E. coli GyrB except the 30 μl reactions contained the following: 20 mM TRIS buffer pH 8, 50 mM ammonium acetate, 8 mM magnesium chloride, 5% glycerol, 5 mM 1,4-Dithio-DL-threitol, 0.005% Brij-35, 5 μg/ml sheared salmon sperm DNA, 500 pM E. coli ParC, 500 pM E. coli ParE, 160 μM ATP, and compound in dimethylsulfoxide. An IC50 measurement of compound potency for each compound can be determined from reactions performed in the presence of 10 different compound concentrations.

S. aureus GyrB ATPase = S. aureus GyrB ATPase (Staphylococcus aureus, UniProt P0A0K8); experiment: S. aureus GyrB ATPase inhibition (ammonium molybdate/malachite green phosphate detection); assay type: biochemical; conditions: compound concentration of 1 μM; read-out: percent inhibition of S. aureus GyrB ATPase
S. aureus GyrB ATPase, sequence (P0AES4 whole entry): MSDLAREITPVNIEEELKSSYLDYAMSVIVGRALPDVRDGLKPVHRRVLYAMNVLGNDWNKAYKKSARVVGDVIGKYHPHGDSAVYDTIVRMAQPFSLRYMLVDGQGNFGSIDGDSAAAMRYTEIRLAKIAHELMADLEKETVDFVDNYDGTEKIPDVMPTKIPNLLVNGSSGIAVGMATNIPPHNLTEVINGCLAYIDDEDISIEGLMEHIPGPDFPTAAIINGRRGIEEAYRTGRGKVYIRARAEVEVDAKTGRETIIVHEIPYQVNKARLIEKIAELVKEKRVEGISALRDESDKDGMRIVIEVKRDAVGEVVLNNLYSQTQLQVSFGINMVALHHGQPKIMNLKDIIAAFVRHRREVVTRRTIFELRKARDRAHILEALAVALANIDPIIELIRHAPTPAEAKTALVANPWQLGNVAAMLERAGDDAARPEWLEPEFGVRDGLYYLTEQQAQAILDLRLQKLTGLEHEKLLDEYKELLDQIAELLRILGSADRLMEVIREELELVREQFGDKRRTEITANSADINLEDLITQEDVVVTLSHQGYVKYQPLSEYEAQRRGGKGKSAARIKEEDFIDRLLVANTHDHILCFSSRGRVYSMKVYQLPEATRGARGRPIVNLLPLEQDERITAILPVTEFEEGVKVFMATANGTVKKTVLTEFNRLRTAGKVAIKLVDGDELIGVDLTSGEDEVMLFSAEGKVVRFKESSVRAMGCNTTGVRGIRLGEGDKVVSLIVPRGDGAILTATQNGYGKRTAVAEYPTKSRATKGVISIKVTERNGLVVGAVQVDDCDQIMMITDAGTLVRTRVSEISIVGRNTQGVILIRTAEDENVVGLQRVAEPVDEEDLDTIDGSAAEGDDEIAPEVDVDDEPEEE
S. aureus GyrB ATPase, sequence (P0A0K8 whole entry): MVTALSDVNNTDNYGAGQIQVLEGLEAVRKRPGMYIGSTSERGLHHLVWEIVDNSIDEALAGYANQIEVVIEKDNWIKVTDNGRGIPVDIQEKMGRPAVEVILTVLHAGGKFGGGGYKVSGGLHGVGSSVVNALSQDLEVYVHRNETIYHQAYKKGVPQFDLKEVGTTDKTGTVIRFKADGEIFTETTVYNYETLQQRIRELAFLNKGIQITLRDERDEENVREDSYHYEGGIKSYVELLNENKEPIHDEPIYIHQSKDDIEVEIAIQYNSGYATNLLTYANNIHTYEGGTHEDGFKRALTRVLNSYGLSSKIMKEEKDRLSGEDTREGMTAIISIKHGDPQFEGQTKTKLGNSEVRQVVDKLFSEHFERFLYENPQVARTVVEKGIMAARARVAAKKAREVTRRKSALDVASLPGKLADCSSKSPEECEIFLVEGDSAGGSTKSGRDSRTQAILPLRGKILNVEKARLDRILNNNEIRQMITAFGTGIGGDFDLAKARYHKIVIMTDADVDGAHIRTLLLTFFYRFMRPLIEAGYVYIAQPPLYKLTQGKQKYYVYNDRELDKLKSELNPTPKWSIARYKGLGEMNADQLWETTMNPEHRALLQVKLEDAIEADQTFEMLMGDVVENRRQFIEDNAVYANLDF
Procedure: S. aureus GyrB ATPase Inhibition Activity: Compounds may be tested for inhibition of S. aureus GyrB ATPase activity using an ammonium molybdate/malachite green-based phosphate detection assay (Lanzetta, P. A., L. J. Alvarez, P. S. Reinach, and O. A. Candia, 1979, 100: 95-97). Assays can be performed in multiwell plates in 30 μl reactions containing: 50 mM Hepes buffer pH 7.5, 75 mM ammonium acetate, 8.0 mM magnesium chloride, 0.5 mM ethylenediaminetetraacetic acid, 5% glycerol, 1.0 mM 1,4-Dithio-DL-threitol, 200 nM bovine serum albumin, 1.0 μg/ml sheared salmon sperm DNA, 250 pM E. coli GyrA, 250 pM S. aureus GyrB, 250 μM ATP, and compound in dimethylsulfoxide. Reactions can be quenched with 30 μl of ammonium molybdate/malachite green detection reagent containing 1.2 mM malachite green hydrochloride, 8.5 mM ammonium molybdate tetrahydrate, and 1 M hydrochloric acid. Plates can be read in an absorbance plate reader at 650 nm and percent inhibition values can be calculated using dimethylsulfoxide (2%)-containing reactions as 0% inhibition and EDTA-containing ([…]) reactions as 100% inhibition controls. An IC50 measurement of compound potency for each compound can be determined from reactions performed in the presence of 10 different compound concentrations.

Streptococcus pneumoniae = experiment: Bacterial susceptibility testing in liquid media (MIC); assay type: cell-based; conditions: lowest drug concentration able to reduce growth by 80% or more, read-out: MIC against Streptococcus pneumoniae
Source text: Compounds may be tested for antimicrobial activity by susceptibility testing in liquid media. Compounds may be dissolved in dimethylsulfoxide and tested in 10 doubling dilutions in the susceptibility assays. The organisms used in the assay may be grown overnight on suitable agar media and then suspended in a liquid medium appropriate for the growth of the organism. The suspension can be a 0.5 McFarland and a further 1 in 10 dilution can be made into the same liquid medium to prepare the final organism suspension in 100 μL. Plates can be incubated under appropriate conditions at 37° C. for 24 hrs prior to reading. The Minimum Inhibitory Concentration (MIC) may be determined as the lowest drug concentration able to reduce growth by 80% or more.

E. coli GyrB ATPase = E. coli GyrB ATPase (Escherichia coli, UniProt P0AES6); experiment: E. coli GyrB ATPase inhibition (ammonium molybdate/malachite green phosphate detection); assay type: biochemical
Procedure: E. coli GyrB ATPase Inhibition Activity: Compounds can be tested for inhibition of E. coli GyrB ATPase activity using an ammonium molybdate/malachite green-based phosphate detection assay (Lanzetta, P. A., L. J. Alvarez, P. S. Reinach, and O. A. Candia, 1979, 100: 95-97). Assays can be performed in multiwell plates in 30 μl reactions containing: 50 mM Hepes buffer pH 7.5, 75 mM ammonium acetate, 8.0 mM magnesium chloride, 0.5 mM ethylenediaminetetraacetic acid, 5% glycerol, 1 mM 1,4-Dithio-DL-threitol, 200 nM bovine serum albumin, 1.6 μg/ml sheared salmon sperm DNA, 400 pM E. coli GyrA, 400 pM E. coli GyrB, 250 μM ATP, and compound in dimethylsulfoxide. Reactions can be quenched with 30 μl of ammonium molybdate/malachite green detection reagent containing 1.2 mM malachite green hydrochloride, 8.5 mM ammonium molybdate tetrahydrate, and 1 M hydrochloric acid. Plates can be read in an absorbance plate reader at 650 nm and percent inhibition values are calculated using dimethylsulfoxide (2%)-containing reactions as 0% inhibition and EDTA-containing (2.4 μM) reactions as 100% inhibition controls. An IC50 measurement of compound potency for each compound can be determined from reactions performed in the presence of 10 different compound concentrations.

E. coli Topoisomerase IV ATPase, sequence (P0AFI2 whole entry): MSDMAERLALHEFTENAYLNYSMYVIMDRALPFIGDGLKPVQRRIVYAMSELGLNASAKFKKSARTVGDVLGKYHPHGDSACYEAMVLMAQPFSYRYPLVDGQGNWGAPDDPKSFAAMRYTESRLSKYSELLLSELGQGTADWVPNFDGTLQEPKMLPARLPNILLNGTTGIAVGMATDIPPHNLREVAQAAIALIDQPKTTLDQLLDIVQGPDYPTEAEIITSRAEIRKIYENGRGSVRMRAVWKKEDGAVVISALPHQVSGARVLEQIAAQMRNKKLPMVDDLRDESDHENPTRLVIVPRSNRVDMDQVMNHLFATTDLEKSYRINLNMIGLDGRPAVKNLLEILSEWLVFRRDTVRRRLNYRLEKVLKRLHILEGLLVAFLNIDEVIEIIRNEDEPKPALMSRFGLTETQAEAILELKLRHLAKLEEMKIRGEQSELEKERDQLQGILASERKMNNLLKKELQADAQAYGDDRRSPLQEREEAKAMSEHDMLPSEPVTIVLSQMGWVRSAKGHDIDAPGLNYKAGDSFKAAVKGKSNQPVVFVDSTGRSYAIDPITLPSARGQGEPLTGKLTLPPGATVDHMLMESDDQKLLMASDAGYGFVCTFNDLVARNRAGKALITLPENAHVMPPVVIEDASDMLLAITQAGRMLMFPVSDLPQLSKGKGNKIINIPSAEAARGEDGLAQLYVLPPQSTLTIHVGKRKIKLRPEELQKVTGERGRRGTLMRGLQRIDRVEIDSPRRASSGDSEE
E. coli Topoisomerase IV ATPase, sequence (P20083 whole entry): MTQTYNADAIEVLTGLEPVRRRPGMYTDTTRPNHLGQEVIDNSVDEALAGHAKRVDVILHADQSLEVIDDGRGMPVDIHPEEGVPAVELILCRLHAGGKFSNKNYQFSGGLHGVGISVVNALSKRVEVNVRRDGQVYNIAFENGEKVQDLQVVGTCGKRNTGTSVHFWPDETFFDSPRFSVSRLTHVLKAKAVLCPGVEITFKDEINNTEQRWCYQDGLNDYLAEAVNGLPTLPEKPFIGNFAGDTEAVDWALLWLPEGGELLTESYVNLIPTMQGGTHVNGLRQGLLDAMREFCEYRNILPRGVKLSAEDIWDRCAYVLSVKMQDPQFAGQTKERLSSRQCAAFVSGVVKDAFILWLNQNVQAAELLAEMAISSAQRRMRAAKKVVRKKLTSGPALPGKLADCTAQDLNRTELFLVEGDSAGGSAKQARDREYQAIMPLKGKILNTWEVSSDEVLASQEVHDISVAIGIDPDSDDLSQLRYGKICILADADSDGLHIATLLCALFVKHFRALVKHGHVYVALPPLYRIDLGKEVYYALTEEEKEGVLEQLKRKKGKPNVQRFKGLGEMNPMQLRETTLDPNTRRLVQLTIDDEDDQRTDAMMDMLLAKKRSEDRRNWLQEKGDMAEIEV

CCNC(=O)Nc1cc(C#Cc2ccccn2)c(-c2cncc(-c3n[nH]c(=O)o3)c2)cn1 [Example 1, 1-ethyl-3-(5′-(5-oxo-4,5-dihydro-1,3,4-oxadiazol-2-yl)-4-(pyridin-2-ylethynyl)-3,3′-bipyridin-6-yl)urea] was tested, and the IC50 [1] was < 200 µM, the inhibition at 1 µM (S. aureus GyrB ATPase) was 102% and the MIC (Streptococcus pneumoniae) was 0.2 µM (≈ 0.0855 µg/mL). The IC50 (E. coli GyrB ATPase) was < 200 µM.

— patent publication US20090325902A1, “HETEROCYCLIC UREA DERIVATIVES AND METHODS OF USE THEREOF” (ASTRAZENECA AB, priority 2008, published 2009)
